Measurements: patent publication US4294833A, “Substituted 4-hydroxy-isophthalic acid picolylamides having a pharmaceutical activity in thromboembolic disorders” (Societa Italo-Britannica, priority 1977, dated 1981)

Experiments:
[1] = test system: platelet aggregation induced by ADP; test: Platelet aggregation inhibitory activity in vivo (Born aggregometer), ADP-induced; parameters: species or system New Zealand rabbits; conditions: dose for 50% inhibition of ADP-induced aggregation curve, rabbits, intraperitoneal, blood 2, 4 and 6 hours after injection; for ED50: Oryctolagus cuniculus, Platelet, ip, read-out: platelet antiaggregant activity (AAP), DI50, ADP
How it was run: (§1)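 Born aggregometry with ADP or thrombin as inducer used citrated PRP, with PPP as blank, from anaesthetized rabbits dosed i.p. Sampling was pre-dose and at 2, 4 and 6 h. The value is the mg/kg dose giving 50% inhibition of the aggregation curve versus each rabbit's own pre-treatment control.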

[2] = test system: platelet aggregation induced by thrombin; test: Platelet aggregation inhibitory activity in vivo (Born aggregometer), thrombin-induced; parameters: species or system New Zealand rabbits; conditions: dose for 50% inhibition of thrombin-induced aggregation curve, rabbits, intraperitoneal, blood 2, 4 and 6 hours after injection; for ED50: Oryctolagus cuniculus, Platelet, ip, read-out: platelet antiaggregant activity (AAP), DI50, Thrombin
How it was run: as §1

[3] = test system: thrombin-induced coagulation of platelet rich plasma; test: Antithrombin activity on PRP, Hartert's thromboelastograph; format: in vivo, New Zealand rabbits; conditions: percent decrease of index ma/[r+k] vs before treatment, 20 mg/kg intraperitoneal, rabbits; for inhibition in vivo at 20 mg/kg: Oryctolagus cuniculus, Platelet, ip
How it was run: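 Result is expressed as the percent reduction of the thromboelastographic index ma/(r+k) compared with the same index measured before treatment. Treatment was 20 mg/kg of compound i.p., followed by addition of thrombin (60 units, pH 7.4) to the platelet rich plasma.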

[4] = test system: CaCl2-induced plasma coagulation; test: Anticoagulant activity on PRP, Hartert's thromboelastograph; format: in vivo, New Zealand rabbits; conditions: percent increase of total time for coagulum formation (r+k) vs before treatment, 25 mg/kg intraperitoneal, rabbits; for change in vivo at 25 mg/kg: Oryctolagus cuniculus, ip, read-out: anticoagulant activity (AC)
How it was run: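 Thromboelastographic r+k index of PRP, clotted by adding 1.29% CaCl2, compared before and after treatment and expressed as percent increase. Each compound given intraperitoneally at 25 mg/kg.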

[5] = test system: blood coagulum; test: Fibrinolytic activity, Fearnley method (lysis of blood coagulum in toto); format: in vivo; conditions: percent decrease of coagulum weight after 30 minutes at 37° C., 25 mg/kg intraperitoneal, rabbits; for fibrinolytic activity (percent decrease of coagulum weight) at 25 mg/kg: Oryctolagus cuniculus, ip, 0.5 h, read-out: fibrinolytic activity (FL)
How it was run: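 Fibrinolysis is expressed as percent loss of clot weight after 30 min at 37 °C, following 30 min on ice. The clots formed from 0.2 ml rabbit ear-vein blood in pH 7.4 phosphate buffer with thrombin (50 NIH units/ml solution). Samples were taken before and after an intraperitoneal dose of 25 mg/kg.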

[6] = Acute toxicity, intraperitoneal; parameters: acute toxicity (LD50 / DL50): unit: mg/kg; conditions: mouse, in vivo, ip, male Swiss mice, intraperitoneal, 7 days observation; preliminary, by graphic interpolation; read-out: acute toxicity (LD50 / DL50)
How it was run: (§2)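 Male Swiss mice (20±2 g), fasted 18 h with water ad libitum, were dosed intraperitoneally and observed for 7 days for symptoms and deaths. Preliminary LD50 (mg/kg) was obtained by graphic interpolation.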

[7] = test system: male Swiss mice; test: Acute toxicity, intraperitoneal; parameters: acute toxicity (LD50 / DL50): unit: mg/kg; conditions: mouse, in vivo
How it was run: as §2

SMILES	ED50 [1] [mg/kg]	ED50 [2] [mg/kg]	inhibition in vivo at 20 mg/kg [3] [%]	change in vivo at 25 mg/kg [4] [%]	fibrinolytic activity (percent decrease of coagulum weight) at 25 mg/kg [5] [%]	LD50 at 168 h [6] [mg/kg]	acute toxicity (in words) [7]	platelet antiaggregant activity (AAP), DI50, ADP [1]	platelet antiaggregant activity (AAP), DI50, Thrombin [2]	antithrombin activity (AT) ([3]; 20 mg/kg)	anticoagulant activity (AC) ([4]; 25 mg/kg)	fibrinolytic activity (FL) ([5]; 25 mg/kg)	acute toxicity (LD50 / DL50) ([7]; ip, 10080 min)
CCCCCCCCOc1ccc(C(=O)NCc2cccnc2)cc1C(=O)NCc1cccnc1 [Example 6]	25.9	19.4	45.4	16.9	36.4	187	the acute toxicity increases with an increasing number of carbon atoms in the substituent R"						
CCCOc1ccc(C(=O)NCc2cccnc2)cc1C(=O)NCc1cccnc1 [Example 1]	27.5	19.3	38.6	21.5	32.4	600	the acute toxicity increases with an increasing number of carbon atoms in the substituent R"						
CCC(C)(C)Oc1c(Cl)cc(C(=O)NCc2cccnc2)cc1C(=O)NCc1cccnc1 [Example 38]								54,3 mg/kg	34,6 mg/kg	22,0%	12,9%	19,3%	322
CCCCOc1ccc(C(=O)NCc2cccnc2)cc1C(=O)NCc1cccnc1 [Example 2]	26.7	18.2	40.1	23.2	35.7	573	the acute toxicity increases with an increasing number of carbon atoms in the substituent R"						
CCCCCCCOc1ccc(C(=O)NCc2cccnc2)cc1C(=O)NCc1cccnc1 [Example 5]	24.6	18.1	46.5	18	38.8	181	the acute toxicity increases with an increasing number of carbon atoms in the substituent R"						
CCCCCOc1ccc(C(=O)NCc2cccnc2)cc1C(=O)NCc1cccnc1 [Example 3]	25.3	17.5	43	27.4	36.2	380	the acute toxicity increases with an increasing number of carbon atoms in the substituent R"						
COc1cc(C(=O)NCc2cccnc2)cc(C(=O)NCc2cccnc2)c1O [Example 33]	58.4	38.9	20.3	11.2	15.5	570							
CC(C)COc1ccc(C(=O)NCc2cccnc2)cc1C(=O)NCc1cccnc1 [Example 15]	52.6	33	25.5	17.6	19.8	471							
C=CCOc1ccc(C(=O)NCc2ccncc2)cc1C(=O)NCc1ccncc1 [Example 61]	28.6	19.5	52.8	15.6	45	392							
CC(C)Oc1ccc(C(=O)NCc2ccncc2)cc1C(=O)NCc1ccncc1 [Example 62]	46.8	32.3	26.5	12	21.7	618							
CC=COc1c(Cl)cc(C(=O)N(CCC(C)C)Cc2cccnc2)cc1C(=O)N(CCC(C)C)Cc1cccnc1 [Example 49]	49	30.2	27.9	15.3	21.7	193							
CCCN(Cc1cccnc1)C(=O)c1ccc(OC)c(C(=O)N(CCC)Cc2cccnc2)c1 [Example 41]	65.1	46.5	26.3	15.8	22.3	620							
CCOc1ccc(C(=O)N(CCC(C)C)Cc2cccnc2)cc1C(=O)N(CCC(C)C)Cc1cccnc1 [Example 45]	30.6	22.3	35.8	16.3	29.9	460							
CC(C)=COc1ccc(C(=O)NCc2ccncc2)cc1C(=O)NCc1ccncc1 [Example 65]	36.7	24.5	34.2	23.8	26.5	240							
C=CCOc1c(OC)cc(C(=O)NCc2cccnc2)cc1C(=O)NCc1cccnc1 [Example 17]	51.7	32.6	36	14.1	23	298							
CCC(C)(C)Oc1c(Cl)cc(C(=O)NCc2cccnc2)cc1C(=O)NCc1cccnc1 [Example 29]	44.1	30.7	27.3	20	24.1	206							
COc1ccc(C(=O)N(Cc2cccnc2)C(C)C)cc1C(=O)N(Cc1cccnc1)C(C)C [Example 43]	27.3	20.6	39.4	20.7	33.6	478							
C=CC(C)Oc1ccc(C(=O)NCc2ccncc2)cc1C(=O)NCc1ccncc1 (centres unmarked) [Example 64]	35.1	24	45.9	19.2	33.6	360							
CC=CCOc1ccc(C(=O)N(C)Cc2cccnc2)cc1C(=O)N(C)Cc1cccnc1 [Example 53]	27.5	19.6	47.9	15.1	40.5	215							
